Assays:
PDE1 = experiment: Biochemical assay PDE1; conditions: PDE1, Bov
PDE2 = PDE2 (Homo sapiens, UniProt O00408); experiment: Biochemical assay PDE2; conditions: PDE2, Hu
PDE4 = experiment: Biochemical assay PDE4; conditions: PDE4, Hu
PDE5 = PDE5 (Homo sapiens, UniProt O76074); experiment: Biochemical assay PDE5; conditions: PDE5, Hu
Adrenergic α2B = molecular target: T1, Adrenergic α2B (Homo sapiens, UniProt P18089); experiment: Biochemical assay Adrenergic α2B; format: binding; conditions: Hu; for Ki: value in parentheses
T1 sequence (P18089 1-450): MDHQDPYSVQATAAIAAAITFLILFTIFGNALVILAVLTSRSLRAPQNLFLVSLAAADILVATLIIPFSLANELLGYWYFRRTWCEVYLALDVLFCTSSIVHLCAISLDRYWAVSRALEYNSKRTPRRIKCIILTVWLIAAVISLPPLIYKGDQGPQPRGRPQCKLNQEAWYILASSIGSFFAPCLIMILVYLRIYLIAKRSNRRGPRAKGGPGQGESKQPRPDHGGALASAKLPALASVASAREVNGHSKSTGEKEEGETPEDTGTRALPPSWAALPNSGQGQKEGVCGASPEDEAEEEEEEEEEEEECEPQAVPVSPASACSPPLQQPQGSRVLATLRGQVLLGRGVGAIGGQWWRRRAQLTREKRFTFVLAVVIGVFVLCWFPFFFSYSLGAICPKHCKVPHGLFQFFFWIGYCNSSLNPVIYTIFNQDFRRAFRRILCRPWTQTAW

[1] = molecular target: Adrenergic, NE Transporter (Homo sapiens, UniProt P23975); experiment: Biochemical assay Adrenergic, NE Transporter; format: binding; conditions: Hu; for Ki: value in parentheses
Adrenergic, NE Transporter, sequence (P23975 whole entry): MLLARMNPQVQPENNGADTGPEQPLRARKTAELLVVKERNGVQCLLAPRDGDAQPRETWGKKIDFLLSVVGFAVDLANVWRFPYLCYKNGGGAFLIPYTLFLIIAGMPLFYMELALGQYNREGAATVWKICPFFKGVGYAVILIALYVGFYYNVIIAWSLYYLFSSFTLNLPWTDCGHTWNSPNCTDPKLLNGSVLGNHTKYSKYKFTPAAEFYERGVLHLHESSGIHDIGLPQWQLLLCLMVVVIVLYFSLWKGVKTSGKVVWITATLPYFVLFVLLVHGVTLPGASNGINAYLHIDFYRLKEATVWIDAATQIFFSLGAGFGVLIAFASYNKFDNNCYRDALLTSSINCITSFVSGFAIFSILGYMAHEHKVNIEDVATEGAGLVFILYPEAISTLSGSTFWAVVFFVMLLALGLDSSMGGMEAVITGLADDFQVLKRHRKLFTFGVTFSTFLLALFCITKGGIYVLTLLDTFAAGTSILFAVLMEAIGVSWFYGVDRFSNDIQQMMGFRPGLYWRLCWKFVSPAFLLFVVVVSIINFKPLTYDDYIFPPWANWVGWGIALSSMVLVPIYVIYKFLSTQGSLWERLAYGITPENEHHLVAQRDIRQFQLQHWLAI

Melanocortin MC5 = Melanocortin MC5 (Homo sapiens, UniProt P33032); experiment: Biochemical assay Melanocortin MC5; format: binding; conditions: Melanocortin MC5, Hu; for Ki: value in parentheses
Melanocortin MC5, sequence (P33032 whole entry): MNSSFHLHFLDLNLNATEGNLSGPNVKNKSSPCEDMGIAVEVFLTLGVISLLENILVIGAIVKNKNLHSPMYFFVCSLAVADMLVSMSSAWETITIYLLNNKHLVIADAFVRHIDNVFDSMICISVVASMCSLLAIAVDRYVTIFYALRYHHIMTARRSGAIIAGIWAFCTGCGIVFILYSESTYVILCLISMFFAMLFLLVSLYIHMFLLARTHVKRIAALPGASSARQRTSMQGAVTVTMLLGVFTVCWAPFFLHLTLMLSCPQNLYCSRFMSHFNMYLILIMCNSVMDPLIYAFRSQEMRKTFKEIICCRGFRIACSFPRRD

Thromboxane A2 = molecular target: T2, Thromboxane A2 (Homo sapiens, UniProt P21731); experiment: Biochemical assay Thromboxane A2; format: binding; conditions: Thromboxane A2, Hu; for Ki: value in parentheses
T2 sequence (P21731 1-343): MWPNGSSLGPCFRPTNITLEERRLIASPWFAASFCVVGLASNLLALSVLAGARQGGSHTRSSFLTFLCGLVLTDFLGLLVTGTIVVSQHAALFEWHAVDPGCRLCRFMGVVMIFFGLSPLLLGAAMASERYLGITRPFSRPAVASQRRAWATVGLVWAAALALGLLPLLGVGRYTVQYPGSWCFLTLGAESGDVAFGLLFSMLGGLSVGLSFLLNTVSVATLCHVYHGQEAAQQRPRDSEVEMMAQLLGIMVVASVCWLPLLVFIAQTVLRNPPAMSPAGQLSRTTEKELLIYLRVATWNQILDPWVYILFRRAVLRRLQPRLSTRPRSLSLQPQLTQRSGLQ

[2] = Form present in human plasma; format: in vivo; conditions: metabolite of compound 1, human plasma
LTB4 = LTB4 (Homo sapiens, UniProt Q15722); experiment: Biochemical assay LTB4; format: binding; conditions: LTB4, Hu
LTB4, sequence (Q15722 whole entry): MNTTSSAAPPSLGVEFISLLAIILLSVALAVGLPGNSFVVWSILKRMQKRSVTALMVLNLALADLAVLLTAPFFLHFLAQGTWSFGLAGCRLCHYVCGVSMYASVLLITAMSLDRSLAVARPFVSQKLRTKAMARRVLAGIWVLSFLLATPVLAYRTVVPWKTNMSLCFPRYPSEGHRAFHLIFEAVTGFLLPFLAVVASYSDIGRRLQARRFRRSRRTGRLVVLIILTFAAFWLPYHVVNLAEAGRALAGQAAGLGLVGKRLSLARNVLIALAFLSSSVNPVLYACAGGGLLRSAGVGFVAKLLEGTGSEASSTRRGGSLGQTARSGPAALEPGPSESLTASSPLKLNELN

rat bladder = experiment: Ovalbumin-sensitized rat model of inflammation-induced bladder hyperactivity (cystometry); format: in vivo, Sprague-Dawley rats; conditions: for NVC/minute: 60 minutes prior
Method: Sprague-Dawley rats (n=50; […]) were utilized for this study. The animals were divided into 5 groups (n=10). The first group served as the control and the second group was sensitized with ovalbumin (OA). The third, fourth, and fifth groups were also sensitized as described but subjected to oral gavaging with Compound 1 prior to acute ovalbumin challenge.
Sensitization of the animals was accomplished with an intraperitoneal injection of a mixture of 1 mg OA and 100 mg aluminum hydroxide suspended in 1 mL of saline. Fourteen days later, these sensitized rats were anaesthetized with a subcutaneous injection of urethane (1.2 g/kg) for intravesical OA (10 mg/mL) administration and evaluation of bladder hyperactivity. The animals in group 1 received saline (control), group 2 animals received about 2 mL of OA (10 mg/mL OA in sterile saline) and animal groups 3-5 animals received oral 1 (10, 30, 50 mg/kg in gum acacia suspension) 60 minutes prior to acute OA challenge (2 mL of 10 mg/mL OA).
All animals were subjected to evaluation of bladder hyperactivity. Briefly, a 1 cm incision was made along the centerline of the lower ventral abdomen. The bladder was exteriorized, and catheterized by means of a polyethylene tube (PE 50, Clay Adams) inserted into the bladder dome and sutured in place using a 2-0 braided silk suture. The bladder was returned to the abdomen, with the catheter line escaping through the incision. The catheter was then connected to a pressure transducer (UFI, Morro Bay, Calif.) and in turn, connected to an infusion pump (Harvard Apparatus, MA). During the continuous filling bladder cystometry, the pressure was recorded with the transducer using the program LabVIEW (National Instruments, TX).
For cystometry (See, Chuang Y C, Chancellor M B, Seki S, Yoshimura N, Tyagi P, Huang L, Lavelle J P, De Groat W C and Fraser M O: Intravesical protamine sulfate and potassium chloride as a model for bladder hyperactivity. Urology (2003) 61:664-70), the bladder was first infused with warm 0.9% saline (37° C.) at 40 μL/min (2.4 mL/hr) and at least 20 minutes of stable voiding cycles were recorded during infusion. This process was followed by intravesical infusion of OA (10 mg/mL) and bladder contractions were recorded. Frequency of contractions (voids), inter-contractile interval (ICI), and non-voiding contractions (NVC) were calculated from these recordings.

IBS/ulcerative colitis = experiment: Example 9: patient with IBS/ulcerative colitis symptoms; format: in vivo, human; conditions: 750 mg tablets three times per day for at least two months; present-tense example
Method: A person complains of symptoms associated with IBS/ulcerative colitis, including diarrhea with discharge of mucus and blood, cramping abdominal pain, and inflammation and edema of the mucous membrane with patches of ulceration. The patient is treated with tablets containing 750 mg of compound (1), three times per day, for at least two months. […] Similar positive results are observed for other patients complaining of the same or similar symptoms attributable to IBS or ulcerative colitis.

PDE2, sequence (O00408 whole entry): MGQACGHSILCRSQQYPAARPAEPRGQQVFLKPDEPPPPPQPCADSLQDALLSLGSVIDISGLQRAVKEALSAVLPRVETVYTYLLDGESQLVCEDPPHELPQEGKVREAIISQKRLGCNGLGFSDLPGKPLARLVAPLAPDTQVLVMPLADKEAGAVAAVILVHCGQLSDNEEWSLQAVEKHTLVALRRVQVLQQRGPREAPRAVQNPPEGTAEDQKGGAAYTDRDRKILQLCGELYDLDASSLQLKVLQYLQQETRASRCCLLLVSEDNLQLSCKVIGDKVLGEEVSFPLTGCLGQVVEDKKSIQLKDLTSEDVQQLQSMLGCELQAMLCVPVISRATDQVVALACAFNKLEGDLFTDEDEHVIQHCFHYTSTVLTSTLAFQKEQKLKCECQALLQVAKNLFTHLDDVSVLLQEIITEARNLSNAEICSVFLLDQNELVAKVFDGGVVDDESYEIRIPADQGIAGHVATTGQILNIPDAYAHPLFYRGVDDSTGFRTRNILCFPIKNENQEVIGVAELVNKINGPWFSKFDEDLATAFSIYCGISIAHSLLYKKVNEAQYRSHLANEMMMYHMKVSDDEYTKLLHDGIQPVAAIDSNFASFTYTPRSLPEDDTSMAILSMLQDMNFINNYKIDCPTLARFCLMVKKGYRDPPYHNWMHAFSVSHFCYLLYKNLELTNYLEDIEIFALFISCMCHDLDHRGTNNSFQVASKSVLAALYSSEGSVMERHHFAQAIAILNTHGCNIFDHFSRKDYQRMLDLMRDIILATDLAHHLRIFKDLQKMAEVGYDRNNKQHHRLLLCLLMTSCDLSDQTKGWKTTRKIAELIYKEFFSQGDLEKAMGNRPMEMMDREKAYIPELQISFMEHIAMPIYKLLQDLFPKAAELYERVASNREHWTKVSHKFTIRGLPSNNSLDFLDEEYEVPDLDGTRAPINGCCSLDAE

Structure (SMILES) | IC50 (PDE1) [nM] | IC50 (PDE2) [nM] | IC50 (PDE4) [nM] | IC50 (PDE5) [nM] | IC50 (Adrenergic α2B) [nM] | Ki (Adrenergic α2B) [nM] | IC50 [1] [nM] | Ki [1] [nM] | IC50 (Melanocortin MC5) [nM] | Ki (Melanocortin MC5) [nM] | IC50 (Thromboxane A2) [nM] | Ki (Thromboxane A2) [nM] | further results
CCCc1c(SCCCOc2ccc(C(C)O)c(OCCCC(=O)O)c2CCC)ccc(C(C)=O)c1O (stereo not shown) [Compound 2] | 3080 | 3380 | 303 | 8470 | 1600 | 732 | 2050 | 2030 | 1820 | 1710 | 3890 | 2540 | form in human plasma [2]: dominant form
CCCc1c(SCCCOc2ccc(C(C)=O)c(OCCCC(=O)O)c2CCC)ccc(C(C)=O)c1O [Compound 1, 4-[6-acetyl-3-[3-(4-acetyl-3-hydroxy-2-propylphenylthio)propoxy]-2-propylphenoxy]butyric acid] | 741 | 3430 | 639 | 12700 | 2810 | 1280 | 3500 | 3470 | 2580 | 2420 | 3370 | 2200 | IC50 (LTB4): 9020 nM; Ki (LTB4; value in parentheses): 2290 nM; NVC/minute (rat bladder; Group 3: OA (10 mg/mL) infusion after oral 10 mg/kg, n = 10, NS compared to Group 2 (OA alone 0.9400 ± 0.2473)): 0.4700 ± 0.1221 NVC/minute; NVC/minute (rat bladder; Group 4: OA (10 mg/mL) infusion after oral 30 mg/kg, n = 9, P < 0.05 compared to Group 2): 0.3444 ± 0.06894 NVC/minute; NVC/minute (rat bladder; Group 5: OA (10 mg/mL) infusion after oral 50 mg/kg, n = 9, P < 0.05 compared to Group 2): 0.1778 ± 0.08296 NVC/minute; voiding frequency (rat bladder; control (group 1) versus treatment groups (2-5)): No significant differences; OA-induced changes in NVC and ICI (rat bladder; pre-treatment, oral 10, 30, 50 mg/kg): dose-dependent inhibition; protection against OA-induced changes (increase in NVC, decrease in ICI) (rat bladder; pre-treatment, preferably at 30 and 50 mg/kg): significant protection; symptoms of IBS/ulcerative colitis reported by patient (IBS/ulcerative colitis): positive effects
